Test results as given in ChEMBL document CHEMBL3286201, “Antileishmanial activity of a series of N²,N⁴-disubstituted quinazoline-2,4-diamines” (J Med Chem, 2014).

How the values were obtained:
[1] = Selectivity index, ratio of EC50 for mouse J774A1 cells to EC50 for intracellular amastigote stage of Leishmania donovani MHOM/ET/67/L82; type: toxicity, cell-based, J774.A1; details: read-out: Ratio EC50
[2] = Cytotoxicity against mouse J774A1 cells after 72 hrs by MTT assay; type: cell-based; details: J774.A1, 72 h
Leishmania amazonensis = assay: Antileishmanial activity against intracellular amastigote stage of Leishmania amazonensis LV78 infected in mouse J774A1 cells by colorimetric assay; type: functional, organism-based; details: LV78, J774.A1
[3] = Aqueous solubility of the compound at pH 2; type: physicochemical; details: buffer
Leishmania donovani = assay: Antileishmanial activity against intracellular amastigote stage of Leishmania donovani MHOM/ET/67/L82 infected in mouse J774A1 cells by colorimetric assay; type: functional, organism-based; details: MHOM/ET/67/L82, J774.A1
[4] = Aqueous solubility of the compound at pH 7.4; type: physicochemical; details: buffer
[5] = Distribution coefficient, log D of the compound at pH 7.4; type: physicochemical; details: octanol/water
[6] = Distribution coefficient, log D of the compound at pH 3; type: physicochemical; details: octanol/water
[7] = pampa, pH 4
Description: Passive transcellular permeability of the compound at pH 4 by PAMPA

[8] = pampa, pH 7.4
Description: Passive transcellular permeability of the compound at pH 7.4 by PAMPA

Compound | selectivity ratio [1] | EC50 [2] | EC50 (Leishmania amazonensis) | solubility [3] | EC50 (Leishmania donovani) | solubility [4] | logD [5] | logD [6] | permeability [7] | permeability [8]
c1ccc(CNc2nc(NCc3ccccc3)c3ccccc3n2)cc1 | 8.2 | 5.5 µM | 1.4 µM | ≤ 20 µM | 0.67 µM | ≤ 5 µM | – | – | – | –
CNc1nc(NCc2ccccc2)c2ccccc2n1 | 12 | 18 µM | 13 µM | ≥ 30 µM | 1.5 µM | ≥ 30 µM | 3.14 | 2.11 | – | –
CCCCNc1nc(NCCCC)c2ccccc2n1 | 3 | 5.4 µM | 2.1 µM | ≥ 30 µM | 1.8 µM | ≤ 10 µM | 3.89 | 2.91 | 485 ×10⁻⁶ cm/s | 880 ×10⁻⁶ cm/s
CSCCNc1nc(NC(C)C)nc2ccccc12 | 4.7 | 20 µM | 5.1 µM | ≥ 30 µM | 4.3 µM | ≤ 20 µM | 3.02 | 2.06 | 28.8 ×10⁻⁶ cm/s | 1480 ×10⁻⁶ cm/s
CC(C)Nc1nc(NCc2ccco2)c2ccccc2n1 | 6.8 | 17 µM | 3.7 µM | ≥ 30 µM | 2.5 µM | ≥ 30 µM | 3.15 | 2.18 | 62.2 ×10⁻⁶ cm/s | 883 ×10⁻⁶ cm/s
FC(F)(F)CNc1nc(NCc2ccco2)c2ccccc2n1 | 6.4 | 23 µM | 5.8 µM | ≥ 30 µM | 3.6 µM | ≤ 10 µM | 4.2 | 2.02 | 67.7 ×10⁻⁶ cm/s | 979 ×10⁻⁶ cm/s
OCCNc1nc(NCc2ccco2)c2ccccc2n1 | > 1.3 | > 33 µM | > 50 µM | ≥ 30 µM | 25 µM | ≤ 20 µM | 2.19 | 1.48 | 26.4 ×10⁻⁶ cm/s | 1130 ×10⁻⁶ cm/s
CC(C)Nc1nc(N(C)C)c2ccccc2n1 | > 3.7 | > 33 µM | 19 µM | ≥ 30 µM | 8.9 µM | ≤ 10 µM | 3.13 | 1.64 | 72.3 ×10⁻⁶ cm/s | 1120 ×10⁻⁶ cm/s
CC(C)Nc1nc(NCC(F)(F)F)c2ccccc2n1 | > 8.9 | > 33 µM | 7.6 µM | ≥ 30 µM | 3.7 µM | ≥ 30 µM | 3.19 | 2.4 | 19.7 ×10⁻⁶ cm/s | 780 ×10⁻⁶ cm/s
CC(C)Nc1nc(NC2CCCCC2)c2ccccc2n1 | – | – | > 50 µM | – | > 50 µM | ≤ 20 µM | – | – | – | –
CCOC(=O)CNc1nc(NC(C)C)nc2ccccc12 | > 4.8 | > 33 µM | 20 µM | ≥ 30 µM | 6.9 µM | ≤ 20 µM | 2.54 | 1.73 | 38.8 ×10⁻⁶ cm/s | 744 ×10⁻⁶ cm/s
CC(C)Nc1nc(NCc2ccco2)c2cccc(Cl)c2n1 | > 7.5 | > 33 µM | 18 µM | ≥ 30 µM | 4.4 µM | ≤ 5 µM | 3.96 | 2.38 | 67.6 ×10⁻⁶ cm/s | 1330 ×10⁻⁶ cm/s
CC(C)Nc1nc(NCc2ccco2)c2ccc(Cl)cc2n1 | > 11 | > 100 µM | 23 µM | ≥ 30 µM | 9 µM | ≤ 20 µM | 3.91 | 2.51 | 103 ×10⁻⁶ cm/s | 1380 ×10⁻⁶ cm/s
CC(C)Nc1nc(NCc2ccco2)c2cc(Cl)ccc2n1 | > 13 | > 33 µM | 25 µM | ≥ 30 µM | 2.6 µM | ≤ 20 µM | 3.99 | 2.6 | 170 ×10⁻⁶ cm/s | 1630 ×10⁻⁶ cm/s
CC(C)Nc1nc(NCc2ccco2)c2c(Cl)cccc2n1 | 11 | 25 µM | 12 µM | ≥ 30 µM | 2.3 µM | ≤ 10 µM | 4.44 | 2.62 | 169 ×10⁻⁶ cm/s | 1240 ×10⁻⁶ cm/s
Cc1cccc2c(NCc3ccco3)nc(NC(C)C)nc12 | > 7.9 | > 33 µM | 4.4 µM | ≥ 30 µM | 4.2 µM | ≤ 20 µM | 3.55 | 1.57 | 45.9 ×10⁻⁶ cm/s | 666 ×10⁻⁶ cm/s
Cc1ccc2nc(NC(C)C)nc(NCc3ccco3)c2c1 | > 7 | > 33 µM | 15 µM | ≥ 30 µM | 4.7 µM | ≤ 20 µM | 3.63 | 1.55 | 67.2 ×10⁻⁶ cm/s | 789 ×10⁻⁶ cm/s
Cc1cccc2nc(NC(C)C)nc(NCc3ccco3)c12 | 21 | 20 µM | 3.6 µM | ≥ 30 µM | 0.95 µM | ≤ 10 µM | 3.55 | 2.44 | 45.9 ×10⁻⁶ cm/s | 812 ×10⁻⁶ cm/s
COc1cccc2c(NCc3ccco3)nc(NC(C)C)nc12 | 9.4 | 30 µM | 7.3 µM | ≥ 30 µM | 3.2 µM | ≤ 20 µM | 3.4 | 2.99 | 38.4 ×10⁻⁶ cm/s | 1060 ×10⁻⁶ cm/s
COc1ccc2c(NCc3ccco3)nc(NC(C)C)nc2c1 | 13 | 16 µM | 10 µM | ≥ 30 µM | 1.2 µM | ≤ 20 µM | 3.7 | 3.11 | 59.2 ×10⁻⁶ cm/s | 1330 ×10⁻⁶ cm/s
COc1ccc2nc(NC(C)C)nc(NCc3ccco3)c2c1 | 19 | 14 µM | 9.6 µM | ≥ 30 µM | 0.74 µM | ≥ 30 µM | 3.58 | 2.95 | 80.2 ×10⁻⁶ cm/s | 1010 ×10⁻⁶ cm/s
CCCCNc1nc(NCc2ccccc2)c2ccccc2n1 | 7.8 | 5.1 µM | 1.8 µM | – | 0.65 µM | ≤ 10 µM | – | – | – | –
c1ccc(CNc2nc(Nc3ccccc3)c3ccccc3n2)cc1 | 20 | 5.2 µM | 2.2 µM | ≥ 30 µM | 0.26 µM | ≤ 5 µM | 4.25 | 2.67 | 412 ×10⁻⁶ cm/s | 663 ×10⁻⁶ cm/s
c1ccc(CNc2nc(Nc3ccccc3)nc3ccccc23)cc1 | 11 | 6.8 µM | 2.6 µM | ≤ 5 µM | 0.64 µM | ≤ 5 µM | 4.17 | 2.78 | 271 ×10⁻⁶ cm/s | 1480 ×10⁻⁶ cm/s
COc1cc([C@@H]2c3cc4c(cc3[C@H](O)[C@H]3COC(=O)[C@H]23)OCO4)cc(OC)c1OC [PODOFILOX] | – | 0.25 µM | – | – | – | – | – | – | – | –
